Here are results for 22 molecules from patent publication US20260200928A1, “THERAPEUTIC COMPOUNDS” (Sanofi, priority 2022, published 2026).

Structures are written as SMILES.

In general, IC50 refers to the point on the concentration scale where inhibition reaches its midpoint. A high value points to weaker potency in that assay.

The target in the assay is T1, human IL-17A (Homo sapiens, UniProt Q16552).
T1 construct: purchased R&D Systems 7955-IL/CF
T1 sequence (Q16552 24-155): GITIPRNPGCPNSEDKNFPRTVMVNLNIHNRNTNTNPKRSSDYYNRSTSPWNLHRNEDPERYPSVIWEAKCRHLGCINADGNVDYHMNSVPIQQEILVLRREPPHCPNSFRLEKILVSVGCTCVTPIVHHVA
The assay is described as follows: IL-17A AlphaLISA competition assay (block of IL-17A binding to its receptor IL-17RA). As to conditions: mean IC50 (n≥2), block of IL-17A binding to IL-17RA. In a few lines:
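Human recombinant IL-17A (7.5 nM stock) pre-incubated 30 min at RT with compound, then IL-17RA/Fc (5 nM stock) added for 90 min; AlphaLISA read with anti-Fc acceptor beads, biotinylated anti-IL-17A antibody (5 nM) and streptavidin donor beads (3 h, dark). IC50 from 4-parameter logistic fit, normalised to DMSO and 4 μM reference inhibitor; n≥2.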
In the case of `Cn1ccnc1C(=O)N[C@H](C(=O)Nc1cc(C(NC(=O)CCC(F)(F)F)C2CC2)ccn1)C1CCC(F)(F)CC1` (stereo partly drawn) [Example 111, N-((1S)-2-((4-(cyclopropyl(4,4,4-trifluorobutanamido)methyl)pyridin-2-yl)amino)-1-(4,4-difluorocyclohexyl)-2-oxoethyl)-1-methyl-1H-imidazole-2-carboxamide], the concentration for half-maximal inhibition (IC50) amounted to 6.17 µM.
Under `COCC(c1ccnc(NC(=O)C(NC(=O)Cc2c(C)noc2C)C2CCC(C)CC2)c1)N1CC(C(F)(F)F)NC1=O` [Example 113, (2S)-2-(2-(3,5-dimethyl-isoxazol-4-yl)acetamido)-N-(4-(2-methoxy-1-((S)-2-oxo-4-(trifluoromethyl)-imidazolidin-1-yl)ethyl)-pyridin-2-yl)-2-((1r,4S)-4-methylcyclohexyl)-acetamide] stands 1 µM; under `C[C@H](OC(C)(C)C)[C@H](NC(=O)c1nonc1C1CC1)C(=O)Nc1cc(CN2C[C@@H](C(F)(F)F)NC2=O)ccn1` [Example 116, N-((2S,3S)-3-(tert-butoxy)-1-oxo-1-((4-(((S)-2-oxo-4-(trifluoromethyl)-imidazolidin-1-yl)methyl)pyridin-2-yl)amino)butan-2-yl)-4-cyclopropyl-1,2,5-oxadiazole-3-carboxamide], 15.4 µM.
Take `CC(C)n1ccnc1C(=O)N[C@H](C(=O)Nc1cc(C(NC(=O)CCC(F)(F)F)C2CC2)ccn1)C1CCC(F)(F)CC1` (stereo partly drawn) [Example 117, N-((1S)-2-((4-(cyclopropyl(4,4,4-trifluorobutanamido)methyl)pyridin-2-yl)amino)-1-(4,4-difluorocyclohexyl)-2-oxoethyl)-1-isopropyl-1H-imidazole-2-carboxamide]: the IC50 turned out to be 0.723 µM.
Under `Cn1nccc1C(=O)N[C@H](C(=O)Nc1cc(OC2CCNC2=O)ccn1)[C@H]1CC[C@H](C)CC1` (stereo partly drawn) [Example 118, 1-methyl-N-((1S)-1-((1r,4S)-4-methylcyclohexyl)-2-oxo-2-((4-((2-oxopyrrolidin-3-yl)oxy)pyridin-2-yl)amino)ethyl)-1H-pyrazole-5-carboxamide] stands 8.97 µM.
As to `CC(C)n1nccc1C(=O)N[C@H](C(=O)Nc1cc(OC2CCNC2=O)ccn1)[C@H]1CC[C@H](C)CC1` (stereo partly drawn) [Example 119, 1-isopropyl-N-((1S)-1-((1r,4S)-4-methylcyclohexyl)-2-oxo-2-((4-((2-oxopyrrolidin-3-yl)oxy)pyridin-2-yl)amino)ethyl)-1H-pyrazole-5-carboxamide], the IC50 was found to be 3.99 µM.
In the case of `CC(C)n1nccc1C(=O)N[C@H](C(=O)Nc1cc(CN2C[C@@H](C(F)(F)F)NC2=O)ccn1)[C@@H](C)OC(C)(C)C` [Example 127, N-((2S,3R)-3-(tert-butoxy)-1-oxo-1-((4-(((S)-2-oxo-4-(trifluoromethyl)-imidazolidin-1-yl)methyl)-pyridin-2-yl)amino)butan-2-yl)-1-isopropyl-1H-pyrazole-5-carboxamide], the IC50 is 0.44 µM.
In the case of `Cc1nonc1C(=O)N[C@H](C(=O)Nc1cc(CN2C[C@@H](C(F)(F)F)NC2=O)ccn1)[C@@H](C)OC(C)(C)C` [Example 128, N-((2S,3R)-3-(tert-butoxy)-1-oxo-1-((4-(((S)-2-oxo-4-(trifluoromethyl)-imidazolidin-1-yl)methyl)-pyridin-2-yl)amino)butan-2-yl)-4-methyl-1,2,5-oxa-diazole-3-carboxamide] it was 2.35 µM; in that of `CCc1nonc1C(=O)N[C@H](C(=O)Nc1cc(CN2C[C@@H](C(F)(F)F)NC2=O)ccn1)[C@@H](C)OC(C)(C)C` [Example 129, N-((2S,3R)-3-(tert-butoxy)-1-oxo-1-((4-(((S)-2-oxo-4-(trifluoromethyl)-imidazolidin-1-yl)methyl)-pyridin-2-yl)amino)butan-2-yl)-4-ethyl-1,2,5-oxa-diazole-3-carboxamide], 0.533 µM.
Molecule `CC(C)c1nocc1C(=O)N[C@H](C(=O)Nc1cc(CN2C[C@@H](C(F)(F)F)NC2=O)ccn1)[C@@H](C)OC(C)(C)C` [Example 130, N-((2S,3R)-3-(tert-butoxy)-1-oxo-1-((4-(((S)-2-oxo-4-(trifluoromethyl)-imidazolidin-1-yl)methyl)-pyridin-2-yl)amino)butan-2-yl)-3-isopropyl-isoxazole-4-carboxamide] returned an IC50 of 0.35 µM.
Under `COCC(c1ccnc(NC(=O)[C@@H](NC(=O)c2ncncc2C)[C@H]2CC[C@H](C)CC2)c1)N1C[C@H](C(F)(F)F)NC1=O` (stereo partly drawn) [Example 135, N-((1S)-2-((4-(2-methoxy-1-((S)-2-oxo-4-(trifluoromethyl)imidazolidin-1-yl)ethyl)pyridin-2-yl)amino)-1-((1r,4S)-4-methylcyclohexyl)-2-oxoethyl)-5-methylpyrimidine-4-carboxamide] stands 1.46 µM.
On to `[2H]C(c1ccnc(NC(=O)[C@@H](NC(=O)OC(C)(C)C)[C@H]2CC[C@H](C)CC2)c1)N1C[C@@H](C(F)(F)F)NC1=O` (stereo partly drawn) [Example 151, Tert-butyl ((1S)-1-((1r,4S)-4-methylcyclohexyl)-2-oxo-2-((4-(((S)-2-oxo-4-(trifluoromethyl)-imidazolidin-1-yl)methyl-d)pyridin-2-yl)amino)ethyl)carbamate], for which the IC50 was 0.401 µM.
Turning to `C[C@H]1CC[C@H]([C@H](NC(=O)c2nonc2C2CC2)C(=O)Nc2cc(C[C@@H]3C[C@@H](C(F)(F)F)NC3=O)ccn2)CC1` [Example 152, 4-cyclopropyl-N—((S)-1-((1r,4S)-4-methylcyclohexyl)-2-oxo-2-((4-(((3R,5S)-2-oxo-5-(trifluoromethyl)pyrrolidin-3-yl)methyl)pyridin-2-yl)amino)ethyl)-1,2,5-oxadiazole-3-carboxamide], the IC50 turned out to be 2.03 µM.
Turning to `CCn1nccc1C(=O)N[C@H](C(=O)Nc1cc(C[C@@H]2C[C@@H](C(F)(F)F)NC2=O)ccn1)[C@H]1CC[C@H](C)CC1` [Example 153, 1-ethyl-N—((S)-1-((1r,4S)-4-methylcyclohexyl)-2-oxo-2-((4-(((3R,5S)-2-oxo-5-(trifluoromethyl)pyrrolidin-3-yl)methyl)pyridin-2-yl)amino)ethyl)-1H-pyrazole-5-carboxamide], the IC50 is 0.171 µM. This IC50 lies about 12-fold lower than the previous one.
`CC(C)n1nccc1C(=O)N[C@H](C(=O)Nc1cc(C[C@@H]2C[C@@H](C(F)(F)F)NC2=O)ccn1)[C@H]1CC[C@H](C)CC1` [Example 154, 1-isopropyl-N—((S)-1-((1r,4S)-4-methylcyclohexyl)-2-oxo-2-((4-(((3R,5S)-2-oxo-5-(trifluoromethyl)pyrrolidin-3-yl)methyl)pyridin-2-yl)amino)ethyl)-1H-pyrazole-5-carboxamide] registered a half-inhibitory concentration (IC50) of 0.527 µM.
In the case of `CCn1nccc1C(=O)N[C@H](C(=O)Nc1cc(C[C@H]2C[C@@H](C(F)(F)F)NC2=O)ccn1)[C@H]1CC[C@H](C)CC1` [Example 155, 1-ethyl-N—((S)-1-((1r,4S)-4-methylcyclohexyl)-2-oxo-2-((4-(((3S,5S)-2-oxo-5-(trifluoromethyl)pyrrolidin-3-yl)methyl)pyridin-2-yl)amino)ethyl)-1H-pyrazole-5-carboxamide] it was 0.029 µM.
Take `CC(C)n1nccc1C(=O)N[C@H](C(=O)Nc1cc(C[C@H]2C[C@@H](C(F)(F)F)NC2=O)ccn1)[C@H]1CC[C@H](C)CC1` [Example 156, 1-isopropyl-N—((S)-1-((1r,4S)-4-methylcyclohexyl)-2-oxo-2-((4-(((3S,5S)-2-oxo-5-(trifluoromethyl)pyrrolidin-3-yl)methyl)pyridin-2-yl)amino)ethyl)-1H-pyrazole-5-carboxamide]: the IC50 was 0.053 µM.
In turn, `CCc1cnoc1C(=O)N[C@H](C(=O)Nc1cc(C(CC(F)(F)F)NC(=O)CCC(F)(F)F)ccn1)C1CCC(F)(F)CC1` (stereo partly drawn) [Example 157, N-((1S)-1-(4,4-difluorocyclohexyl)-2-oxo-2-((4-(3,3,3-trifluoro-1-(4,4,4-trifluorobutanamido)propyl)pyridin-2-yl)amino)ethyl)-4-ethylisoxazole-5-carboxamide] yielded an IC50 of 0.117 µM. Against the preceding molecule, the IC50 is about 2.2-fold higher.
In turn, `CC(C)n1nccc1C(=O)N[C@H](C(=O)Nc1cc(C(NC(=O)CC(F)(F)F)C2CC2)ccn1)C1CCC(F)(F)CC1` (stereo partly drawn) [Example 160, N-((1S)-2-((4-(cyclopropyl(3,3,3-trifluoropropanamido)methyl)pyridin-2-yl)amino)-1-(4,4-difluorocyclohexyl)-2-oxoethyl)-1-isopropyl-1H-pyrazole-5-carboxamide] displayed an IC50 of 0.183 µM.
`CCc1nocc1C(=O)N[C@H](C(=O)Nc1cc(C(NC(=O)CCC(F)(F)F)C2CC2)ccn1)C1CCC(F)(F)CC1` (stereo partly drawn) [Example 161, N-((1S)-2-((4-(cyclopropyl(4,4,4-trifluorobutanamido)methyl)pyridin-2-yl)amino)-1-(4,4-difluorocyclohexyl)-2-oxoethyl)-3-ethylisoxazole-4-carboxamide] returned a concentration for half-maximal inhibition (IC50) of 0.615 µM.
As for `CC(C)n1nccc1C(=O)N[C@H](C(=O)Nc1cc([C@@H](C)NC(=O)CCC(F)(F)F)ccn1)C1CCC(F)(F)CC1` [Example 167, N—((S)-1-(4,4-difluorocyclohexyl)-2-oxo-2-((4-((R)-1-(4,4,4-trifluoro-butanamido)ethyl)pyridin-2-yl)amino)ethyl)-1-isopropyl-1H-pyrazole-5-carboxamide], the half-maximal inhibitory concentration (IC50) stood at 0.222 µM.
For `Cc1cn([C@H](C)c2ccnc(NC(=O)[C@@H](NC(=O)c3nonc3C3CC3)C3CCC(F)(F)CC3)c2)c(=O)[nH]1` [Example 168, 4-Cyclopropyl-N—((S)-1-(4,4-difluorocyclohexyl)-2-((4-((R)-1-(4-methyl-2-oxo-2,3-dihydro-1H-imidazol-1-yl)ethyl)pyridin-2-yl)amino)-2-oxoethyl)-1,2,5-oxadiazole-3-carboxamide], the IC50 came out at 5.79 µM. This IC50 lies about 26-fold higher than the previous one.
